Key:
CHI3L1 (hCHI3L1-His) = CHI3L1 (hCHI3L1-His) (Homo sapiens, UniProt P36222); assay: SPR; assay type: binding
[1] = biological target: CHI3L1/galectin-3 interaction (hCHI3L1-His with galectin-3-GST) (Homo sapiens, UniProt P36222); assay: AlphaLISA, inhibition of CHI3L1/galectin-3 interaction; assay type: binding
Sequence of CHI3L1/galectin-3 interaction (hCHI3L1-His with galectin-3-GST) (P36222 22-383): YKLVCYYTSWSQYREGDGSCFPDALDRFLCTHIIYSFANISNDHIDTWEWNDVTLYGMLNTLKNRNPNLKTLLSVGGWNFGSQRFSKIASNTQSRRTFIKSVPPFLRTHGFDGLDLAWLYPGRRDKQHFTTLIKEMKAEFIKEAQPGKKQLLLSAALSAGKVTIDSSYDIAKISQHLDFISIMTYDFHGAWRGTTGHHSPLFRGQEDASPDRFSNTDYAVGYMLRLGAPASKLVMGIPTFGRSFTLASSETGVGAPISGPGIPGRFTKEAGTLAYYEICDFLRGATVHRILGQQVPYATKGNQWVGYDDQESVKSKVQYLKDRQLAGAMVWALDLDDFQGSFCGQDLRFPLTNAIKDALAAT
Sequence of CHI3L1/galectin-3 interaction (hCHI3L1-His with galectin-3-GST) (P17931 2-250 partner): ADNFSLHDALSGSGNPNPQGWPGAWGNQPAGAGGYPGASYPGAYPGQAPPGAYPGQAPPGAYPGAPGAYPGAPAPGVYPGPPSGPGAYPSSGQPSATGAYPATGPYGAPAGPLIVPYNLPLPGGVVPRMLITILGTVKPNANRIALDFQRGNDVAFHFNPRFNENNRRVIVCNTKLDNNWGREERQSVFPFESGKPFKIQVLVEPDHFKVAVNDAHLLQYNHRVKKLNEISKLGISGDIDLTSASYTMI

Sequence of CHI3L1 (hCHI3L1-His) (P36222 22-383): as the sequence (P36222 22-383) above

Kd (CHI3L1 (hCHI3L1-His))	IC50 [1]	SMILES
7.4 ± 0.78 µM	15.4 ± 4.7 µM	Cc1c(NC(=O)Cn2cnc3sccc3c2=O)cnn1C1CCCC1 [1-7]
10.4 ± 1 µM	23.5 ± 2 µM	CC1Cc2ccccc2CN1C(=O)NCc1cc(=O)n2ccccc2n1 (stereo not shown) [1-4]
